Data: ChEMBL document CHEMBL1201862, “PubChem BioAssay data set” (2004)
Calls of active or inactive are those of the source.

Tests used:
Fatty acid synthase [1] = biological target: T1, Fatty acid synthase (Homo sapiens, UniProt P49327); assay: FAS thioesterase domain inhibitors, dose response, biochemical, kinetic fluorescence intensity (AID 624326); type: functional;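 also: rate of fluorescence rise from hydrolysis of a fluorogenic O-methyl fluorescein ester substrate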
[2] = HepG2 cell cytotoxicity, dose response, cytotoxicity control for non-replicating M. tuberculosis project (AID 489018); type: functional; settings: Mycobacterium tuberculosis
cells = type: functional
[3] = Luminescence Cell-Based Dose Response HTS to Identify Inhibitors of 5'UTR Stem-Loop Driven Prion Protein mRNA Translation in H4 Neuroglioblastoma Cells. [Related pubchem assays: 1827 (Project Summary), 1813 (Primary HTS)]; type: functional
[4] = inhibitors of SNCA 5'UTR-driven reporter translation, confirmation, H4 neuroglioma cells, luminescence (AID 1988); type: functional, cell-based
[5] = Vero E6 cell cytotoxicity, dose response, cytotoxicity control for non-replicating M. tuberculosis project, secondary assay (AID 492998); type: functional, VeroE6; settings: Vero C1008
[6] = THP-1 cell cytotoxicity, dose response, cytotoxicity control for non-replicating M. tuberculosis project (AID 489025); type: functional
[7] = cytotoxicity in HEK-293T cells, dose response, cytotoxicity control for BCR NF-kB inhibitor project, luminescence, B-cell screen hits (AID 489021); type: functional, cell-based;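 also: HEK-293T cells carrying an NF-kB luciferase reporter; cells exposed to compound for about 14 hours before viability readout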
Fatty acid synthase [8] = biological target: T1, Fatty acid synthase; assay: FAS thioesterase domain inhibitors, dose response, biochemical, endpoint fluorescence intensity, uHTS hits (AID 624327); type: functional;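 also: fluorescence from hydrolysis of an O-methyl fluorescein acyl ester substrate by the enzyme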
[9] = cytotoxicity toward NIH3T3 fibroblasts, dose response, counter-screen, cell-based, ATP luminescence, mouse fibroblasts (AID 2010); type: functional;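 also: cells exposed to compound for about 90 hours before reading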
[10] = inhibitors of firefly luciferase expression or activity, dose response, H4 neuroglioma cells, luminescence (AID 1990); type: functional, cell-based
[11] = inhibitors of intracellular T. cruzi replication, confirmation, NIH3T3 host cells, beta-gal luminescence (AID 2044); type: functional, cell-based;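 also: intracellular parasites grown in NIH/3T3 mouse fibroblasts as host cells; luminescent beta-galactosidase reporter signal from transgenic T. cruzi replicating inside host cells; inhibitors lower the luminescence signal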
[12] = biological target: T2, Microphthalmia-associated transcription factor (Homo sapiens, UniProt O75030); assay: TRPM1 promoter luciferase signal decrease, dose response, MITF inhibitor project, cell-based, SK-MEL-5, cherry-picked, set 3 (AID 493073); type: functional
T2 sequence (O75030 whole entry): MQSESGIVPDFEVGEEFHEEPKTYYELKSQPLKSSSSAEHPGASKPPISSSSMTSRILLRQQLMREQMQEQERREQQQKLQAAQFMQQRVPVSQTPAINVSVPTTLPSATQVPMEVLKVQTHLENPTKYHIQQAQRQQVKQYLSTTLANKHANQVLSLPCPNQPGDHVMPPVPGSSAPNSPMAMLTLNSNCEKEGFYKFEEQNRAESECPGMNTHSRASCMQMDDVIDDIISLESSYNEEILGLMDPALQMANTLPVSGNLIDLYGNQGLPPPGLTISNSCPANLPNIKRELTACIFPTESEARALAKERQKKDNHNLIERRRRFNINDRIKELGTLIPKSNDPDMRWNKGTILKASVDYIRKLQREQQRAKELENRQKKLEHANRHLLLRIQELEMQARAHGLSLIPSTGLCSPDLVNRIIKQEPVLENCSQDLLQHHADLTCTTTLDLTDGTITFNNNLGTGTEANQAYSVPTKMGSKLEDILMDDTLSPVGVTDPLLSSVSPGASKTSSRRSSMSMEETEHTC

[13] = biological target: Luciferin 4-monooxygenase (Photinus pyralis, UniProt P08659); assay: Counter Screen for Luciferase-based Assay Positives. [Related pubchem assays: 620, 618, 411 ]
HT-1080 = assay: cytotoxicity in HT1080 fibrosarcoma cells, cell-based, fluorescence readout (AID 620); type: functional; settings: Homo sapiens
[14] = biological target: Voltage-dependent T-type calcium channel subunit alpha-1H (Homo sapiens, UniProt O95180); type: functional;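 also: channel activity triggered by adding a high calcium stimulation buffer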
Sequence of Voltage-dependent T-type calcium channel subunit alpha-1H (O95180 whole entry): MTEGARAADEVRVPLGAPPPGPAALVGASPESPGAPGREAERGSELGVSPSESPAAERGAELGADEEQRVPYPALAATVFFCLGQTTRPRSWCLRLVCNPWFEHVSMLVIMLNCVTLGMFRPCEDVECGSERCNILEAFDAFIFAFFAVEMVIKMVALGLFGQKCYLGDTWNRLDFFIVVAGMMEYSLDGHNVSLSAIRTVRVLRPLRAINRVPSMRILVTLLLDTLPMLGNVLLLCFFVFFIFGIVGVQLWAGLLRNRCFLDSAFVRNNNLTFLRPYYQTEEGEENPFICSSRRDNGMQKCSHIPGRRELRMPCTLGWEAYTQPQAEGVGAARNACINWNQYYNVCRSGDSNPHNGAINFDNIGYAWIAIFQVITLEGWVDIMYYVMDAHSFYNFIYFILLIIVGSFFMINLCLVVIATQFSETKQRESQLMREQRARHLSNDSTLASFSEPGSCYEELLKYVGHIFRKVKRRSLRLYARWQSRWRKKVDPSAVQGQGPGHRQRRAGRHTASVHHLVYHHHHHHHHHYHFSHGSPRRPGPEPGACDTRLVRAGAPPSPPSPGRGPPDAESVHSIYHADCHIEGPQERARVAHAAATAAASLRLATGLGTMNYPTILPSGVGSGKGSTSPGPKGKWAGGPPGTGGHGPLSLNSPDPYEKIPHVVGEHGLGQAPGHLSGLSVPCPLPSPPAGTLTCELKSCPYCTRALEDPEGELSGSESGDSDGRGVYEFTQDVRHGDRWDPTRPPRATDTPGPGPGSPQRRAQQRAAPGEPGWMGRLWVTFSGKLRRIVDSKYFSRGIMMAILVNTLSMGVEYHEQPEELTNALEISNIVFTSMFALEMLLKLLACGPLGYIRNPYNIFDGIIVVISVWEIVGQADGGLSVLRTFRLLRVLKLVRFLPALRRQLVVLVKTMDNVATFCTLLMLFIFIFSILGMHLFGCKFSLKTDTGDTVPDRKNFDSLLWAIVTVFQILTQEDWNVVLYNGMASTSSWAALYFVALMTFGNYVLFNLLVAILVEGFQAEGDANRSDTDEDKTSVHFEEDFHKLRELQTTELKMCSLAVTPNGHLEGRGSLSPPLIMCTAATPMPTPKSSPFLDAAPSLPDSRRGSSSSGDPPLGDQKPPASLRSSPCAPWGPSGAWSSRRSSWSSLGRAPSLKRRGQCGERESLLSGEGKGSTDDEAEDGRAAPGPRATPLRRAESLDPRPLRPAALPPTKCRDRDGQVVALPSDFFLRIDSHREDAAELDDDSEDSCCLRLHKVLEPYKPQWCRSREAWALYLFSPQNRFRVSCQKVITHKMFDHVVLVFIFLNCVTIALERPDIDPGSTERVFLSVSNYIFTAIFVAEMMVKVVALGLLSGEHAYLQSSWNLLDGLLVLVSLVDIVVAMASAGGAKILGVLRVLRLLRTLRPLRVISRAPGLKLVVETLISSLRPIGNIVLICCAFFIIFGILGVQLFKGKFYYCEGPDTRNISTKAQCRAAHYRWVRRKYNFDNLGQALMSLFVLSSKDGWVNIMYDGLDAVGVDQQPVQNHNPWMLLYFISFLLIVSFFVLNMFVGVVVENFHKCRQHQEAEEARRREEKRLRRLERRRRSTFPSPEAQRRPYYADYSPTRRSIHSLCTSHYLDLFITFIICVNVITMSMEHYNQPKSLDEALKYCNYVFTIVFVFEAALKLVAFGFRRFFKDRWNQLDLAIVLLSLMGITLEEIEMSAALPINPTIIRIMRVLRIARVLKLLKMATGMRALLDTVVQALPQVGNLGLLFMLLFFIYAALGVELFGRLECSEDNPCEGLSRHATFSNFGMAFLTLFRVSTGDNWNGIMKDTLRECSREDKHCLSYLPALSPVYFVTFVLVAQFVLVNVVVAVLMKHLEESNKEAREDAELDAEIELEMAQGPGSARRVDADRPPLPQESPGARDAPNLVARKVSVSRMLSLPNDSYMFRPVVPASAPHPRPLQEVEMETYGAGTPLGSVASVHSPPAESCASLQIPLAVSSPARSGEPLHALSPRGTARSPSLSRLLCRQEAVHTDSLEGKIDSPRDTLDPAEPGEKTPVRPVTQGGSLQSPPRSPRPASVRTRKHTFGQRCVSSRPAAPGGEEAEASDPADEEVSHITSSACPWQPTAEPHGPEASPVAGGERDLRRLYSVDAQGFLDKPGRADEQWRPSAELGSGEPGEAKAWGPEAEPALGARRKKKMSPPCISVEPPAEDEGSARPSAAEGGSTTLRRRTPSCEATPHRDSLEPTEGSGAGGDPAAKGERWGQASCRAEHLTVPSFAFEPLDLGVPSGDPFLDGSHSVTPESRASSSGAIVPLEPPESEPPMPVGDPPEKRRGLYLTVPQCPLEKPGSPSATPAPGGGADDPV

[15] = biological target: T3, Lysine-specific demethylase 4C (Homo sapiens, UniProt Q9H3R0); assay: GASC-1 (JMJD2C) histone demethylase inhibitors, dose response, biochemical, DELFIA europium, cherry-picked samples (AID 488835); type: functional
T3 sequence (Q9H3R0 whole entry): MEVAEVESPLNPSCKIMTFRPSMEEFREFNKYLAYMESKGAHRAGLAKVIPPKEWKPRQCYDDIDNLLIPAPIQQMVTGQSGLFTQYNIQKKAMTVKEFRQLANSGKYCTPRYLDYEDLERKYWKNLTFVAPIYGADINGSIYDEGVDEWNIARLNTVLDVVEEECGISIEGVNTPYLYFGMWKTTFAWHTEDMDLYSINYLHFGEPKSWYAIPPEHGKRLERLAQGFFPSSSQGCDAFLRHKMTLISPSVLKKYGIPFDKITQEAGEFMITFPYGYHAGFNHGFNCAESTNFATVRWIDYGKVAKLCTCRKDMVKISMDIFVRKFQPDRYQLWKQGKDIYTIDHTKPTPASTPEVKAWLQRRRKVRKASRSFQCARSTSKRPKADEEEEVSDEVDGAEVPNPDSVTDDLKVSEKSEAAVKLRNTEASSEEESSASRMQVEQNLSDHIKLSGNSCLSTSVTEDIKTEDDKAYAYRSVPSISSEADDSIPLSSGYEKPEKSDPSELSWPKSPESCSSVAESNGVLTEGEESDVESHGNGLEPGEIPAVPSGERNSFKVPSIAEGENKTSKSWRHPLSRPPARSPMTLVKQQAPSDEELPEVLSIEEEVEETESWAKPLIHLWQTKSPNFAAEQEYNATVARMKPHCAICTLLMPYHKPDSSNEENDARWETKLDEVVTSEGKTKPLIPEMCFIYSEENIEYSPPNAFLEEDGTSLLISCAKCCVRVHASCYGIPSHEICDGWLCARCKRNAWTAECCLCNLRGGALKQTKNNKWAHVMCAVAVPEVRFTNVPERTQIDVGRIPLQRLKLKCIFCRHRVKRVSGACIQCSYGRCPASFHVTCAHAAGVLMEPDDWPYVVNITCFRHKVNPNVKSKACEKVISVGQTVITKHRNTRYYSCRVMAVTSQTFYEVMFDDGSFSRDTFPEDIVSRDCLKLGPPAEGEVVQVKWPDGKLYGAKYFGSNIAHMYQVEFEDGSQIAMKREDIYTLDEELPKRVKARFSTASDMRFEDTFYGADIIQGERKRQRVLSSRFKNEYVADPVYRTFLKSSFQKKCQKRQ

[16] = biological target: T4, Short transient receptor potential channel 4 (Mus musculus, UniProt Q9QUQ5); assay: mouse TRPC4 channel activators, dose response, cell-based, HEK293 TRPC4/mu-opioid, Fluo-4 calcium (AID 434937); type: functional
T4 sequence (Q9QUQ5 whole entry): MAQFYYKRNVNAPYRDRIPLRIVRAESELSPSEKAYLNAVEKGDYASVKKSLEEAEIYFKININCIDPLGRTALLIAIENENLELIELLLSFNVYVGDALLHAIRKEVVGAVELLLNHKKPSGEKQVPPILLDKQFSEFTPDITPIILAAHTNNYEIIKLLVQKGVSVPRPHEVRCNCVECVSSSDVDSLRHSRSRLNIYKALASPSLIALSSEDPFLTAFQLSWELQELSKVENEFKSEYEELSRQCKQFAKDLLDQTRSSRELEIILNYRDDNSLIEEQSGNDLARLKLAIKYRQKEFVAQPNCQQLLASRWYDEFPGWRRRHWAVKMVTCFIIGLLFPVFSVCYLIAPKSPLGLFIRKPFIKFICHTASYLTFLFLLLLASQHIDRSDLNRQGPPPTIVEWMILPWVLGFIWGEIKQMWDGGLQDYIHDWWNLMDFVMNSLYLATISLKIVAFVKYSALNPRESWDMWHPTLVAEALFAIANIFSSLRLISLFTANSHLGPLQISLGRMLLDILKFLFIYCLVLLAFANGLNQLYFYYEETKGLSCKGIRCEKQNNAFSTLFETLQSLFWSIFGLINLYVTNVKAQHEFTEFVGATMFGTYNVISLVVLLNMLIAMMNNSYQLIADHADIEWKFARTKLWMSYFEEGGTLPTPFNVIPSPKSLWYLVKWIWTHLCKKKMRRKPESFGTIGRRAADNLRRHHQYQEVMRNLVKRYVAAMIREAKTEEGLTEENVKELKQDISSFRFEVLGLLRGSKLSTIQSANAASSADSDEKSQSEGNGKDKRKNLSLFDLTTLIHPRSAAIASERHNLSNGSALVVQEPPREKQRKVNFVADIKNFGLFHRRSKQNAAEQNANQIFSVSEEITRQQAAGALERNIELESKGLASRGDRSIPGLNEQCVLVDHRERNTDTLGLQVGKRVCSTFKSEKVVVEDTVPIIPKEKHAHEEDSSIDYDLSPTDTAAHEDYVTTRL

Estrogen receptor = biological target: T5, Estrogen receptor (Homo sapiens, UniProt P03372);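 also: potency for inhibiting coactivator peptide recruitment to the receptor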
T5 sequence (P03372 whole entry): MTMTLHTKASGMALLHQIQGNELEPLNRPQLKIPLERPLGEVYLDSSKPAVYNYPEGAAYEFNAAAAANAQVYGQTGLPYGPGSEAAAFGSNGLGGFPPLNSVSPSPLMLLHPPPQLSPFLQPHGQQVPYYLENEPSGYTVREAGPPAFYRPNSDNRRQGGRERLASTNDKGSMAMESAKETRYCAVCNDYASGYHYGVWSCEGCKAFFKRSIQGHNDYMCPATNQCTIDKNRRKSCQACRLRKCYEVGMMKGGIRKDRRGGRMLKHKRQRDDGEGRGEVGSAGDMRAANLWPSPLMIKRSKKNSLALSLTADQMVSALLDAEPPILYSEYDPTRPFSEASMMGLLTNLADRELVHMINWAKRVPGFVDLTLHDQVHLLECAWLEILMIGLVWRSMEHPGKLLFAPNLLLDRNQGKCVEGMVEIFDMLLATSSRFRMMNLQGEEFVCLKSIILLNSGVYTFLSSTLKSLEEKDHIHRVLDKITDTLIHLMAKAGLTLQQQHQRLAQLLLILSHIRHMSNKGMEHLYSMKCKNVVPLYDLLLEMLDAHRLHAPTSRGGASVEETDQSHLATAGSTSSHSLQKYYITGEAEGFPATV

Troponin, cardiac muscle = Troponin, cardiac muscle (Homo sapiens, UniProt P19429+P45379+P63316); assay: Fluorescence-based biochemical high throughput dose response assay for activators of the calcium sensitivity of cardiac Regulated Thin Filaments (RTF). [Related pubchem assays (depositor defined):AID493008, AID493018, AID504382, AID504383]; type: protein-complex assay

T1 sequence (P49327 whole entry, the tested form may be a part): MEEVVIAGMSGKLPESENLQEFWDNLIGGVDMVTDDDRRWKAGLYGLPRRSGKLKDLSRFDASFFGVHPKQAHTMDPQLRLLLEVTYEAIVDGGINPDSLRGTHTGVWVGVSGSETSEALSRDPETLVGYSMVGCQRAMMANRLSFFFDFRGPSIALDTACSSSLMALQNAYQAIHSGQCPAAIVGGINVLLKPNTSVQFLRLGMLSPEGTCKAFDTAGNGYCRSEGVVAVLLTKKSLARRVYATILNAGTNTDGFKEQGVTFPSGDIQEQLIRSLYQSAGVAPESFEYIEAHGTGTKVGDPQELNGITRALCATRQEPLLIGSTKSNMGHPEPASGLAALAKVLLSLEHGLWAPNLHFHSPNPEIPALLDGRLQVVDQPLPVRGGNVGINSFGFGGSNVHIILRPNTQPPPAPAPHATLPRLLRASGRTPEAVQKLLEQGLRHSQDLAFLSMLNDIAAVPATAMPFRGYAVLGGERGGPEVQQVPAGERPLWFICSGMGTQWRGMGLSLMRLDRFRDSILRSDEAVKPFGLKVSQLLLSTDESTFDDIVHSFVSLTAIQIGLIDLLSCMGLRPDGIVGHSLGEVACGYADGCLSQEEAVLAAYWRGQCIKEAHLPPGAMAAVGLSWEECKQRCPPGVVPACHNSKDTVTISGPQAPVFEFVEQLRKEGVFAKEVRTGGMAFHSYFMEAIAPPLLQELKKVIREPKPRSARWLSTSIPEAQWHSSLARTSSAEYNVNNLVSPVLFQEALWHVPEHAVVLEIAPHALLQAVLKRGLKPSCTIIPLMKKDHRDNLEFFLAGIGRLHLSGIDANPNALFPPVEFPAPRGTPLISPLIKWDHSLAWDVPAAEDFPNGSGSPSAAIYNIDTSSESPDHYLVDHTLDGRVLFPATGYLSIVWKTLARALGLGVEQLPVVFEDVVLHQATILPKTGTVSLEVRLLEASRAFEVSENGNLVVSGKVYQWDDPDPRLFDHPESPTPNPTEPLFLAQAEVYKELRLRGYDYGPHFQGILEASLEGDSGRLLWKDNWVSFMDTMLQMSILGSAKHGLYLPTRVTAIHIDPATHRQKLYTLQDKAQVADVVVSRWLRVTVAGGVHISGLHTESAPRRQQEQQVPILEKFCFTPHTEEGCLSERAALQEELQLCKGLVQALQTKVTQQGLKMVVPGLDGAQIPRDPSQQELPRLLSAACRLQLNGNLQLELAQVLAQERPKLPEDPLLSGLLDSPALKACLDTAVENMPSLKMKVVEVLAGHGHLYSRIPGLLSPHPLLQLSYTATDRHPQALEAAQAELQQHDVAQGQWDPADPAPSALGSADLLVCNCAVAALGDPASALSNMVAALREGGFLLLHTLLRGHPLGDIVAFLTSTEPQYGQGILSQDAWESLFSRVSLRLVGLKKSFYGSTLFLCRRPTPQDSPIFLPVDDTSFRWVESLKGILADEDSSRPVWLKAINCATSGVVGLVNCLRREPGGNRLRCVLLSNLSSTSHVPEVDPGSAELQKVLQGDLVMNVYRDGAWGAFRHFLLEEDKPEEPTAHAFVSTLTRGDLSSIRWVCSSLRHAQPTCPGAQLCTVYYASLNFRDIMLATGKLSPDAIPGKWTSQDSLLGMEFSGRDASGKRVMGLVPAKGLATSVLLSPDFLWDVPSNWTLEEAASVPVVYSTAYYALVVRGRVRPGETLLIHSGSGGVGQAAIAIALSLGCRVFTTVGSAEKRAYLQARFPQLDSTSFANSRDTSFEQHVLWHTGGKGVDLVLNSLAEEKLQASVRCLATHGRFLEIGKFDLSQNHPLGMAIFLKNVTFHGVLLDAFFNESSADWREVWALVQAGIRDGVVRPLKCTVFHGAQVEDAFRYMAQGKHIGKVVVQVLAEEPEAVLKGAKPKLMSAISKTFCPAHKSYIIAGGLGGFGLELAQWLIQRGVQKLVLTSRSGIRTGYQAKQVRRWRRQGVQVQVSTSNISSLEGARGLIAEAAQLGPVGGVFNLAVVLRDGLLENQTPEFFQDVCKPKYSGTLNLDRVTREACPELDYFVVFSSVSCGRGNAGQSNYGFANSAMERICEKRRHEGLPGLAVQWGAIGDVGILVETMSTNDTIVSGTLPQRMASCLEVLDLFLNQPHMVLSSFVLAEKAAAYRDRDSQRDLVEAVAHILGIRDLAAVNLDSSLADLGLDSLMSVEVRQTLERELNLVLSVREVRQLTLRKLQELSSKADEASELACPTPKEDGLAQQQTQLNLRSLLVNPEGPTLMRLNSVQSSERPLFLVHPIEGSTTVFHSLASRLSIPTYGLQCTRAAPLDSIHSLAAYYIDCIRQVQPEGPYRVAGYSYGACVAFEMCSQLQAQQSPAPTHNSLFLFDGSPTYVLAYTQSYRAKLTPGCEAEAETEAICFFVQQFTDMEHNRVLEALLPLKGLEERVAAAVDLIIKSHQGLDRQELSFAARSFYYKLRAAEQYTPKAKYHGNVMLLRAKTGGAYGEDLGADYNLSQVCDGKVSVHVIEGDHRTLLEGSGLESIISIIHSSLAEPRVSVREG

With `O=C(Nc1ccccc1C(=O)Nc1nnc(C(F)(F)F)s1)c1ccccc1` the IC50 (Fatty acid synthase [1]) was 23.5 µM (inactive), the CC50 [2] was 3.9 µM (active) and the IC50 (cells) was 15.3 µM (active). For the same compound, the EC50 [3] was > 120 µM (not active), the EC50 [4] was 19.3 µM (active) and the CC50 [5] was > 20 µM (active). The CC50 [6] was 3.58 µM (active), the IC50 [7] was 46.2 µM (inactive) and the IC50 (Fatty acid synthase [8]) was 80 µM (inactive). The EC50 [9] was 2.53 µM (active), the EC50 [10] was > 120 µM (not active) and the EC50 [11] was 0.927 µM (active).

For `CCc1ccc(-c2cc(C(=O)Nn3cnnc3)c3ccccc3n2)cc1`, the AC50 [12] was 12.5 µM (active), the EC50 [13] was 2.73 µM (active) and the EC50 (HT-1080) was > 50 µM (not active).

For `COc1ccc(CSc2nnc(Cc3sc(-c4ccccc4)nc3-c3ccccc3)o2)cc1`, the EC50 [14] was 5.33 µM (active).

With `O=C(NCc1ccccn1)c1cn(Cc2ccccc2)nn1` the AC50 [15] was > 60 µM (inactive).

In the case of `CN(C)C(CNC(=O)c1ccc2[nH]cnc2c1)c1ccccc1` (centres undefined), the EC50 [16] is reported as 0.473 µM (active).

For `Cc1cccc(C(=O)N2CCN(c3ccc(C(F)(F)F)cn3)CC2)c1C`, the EC50 [14] was 9.85 µM (active).

For `Cn1c(Cc2ccccc2)nnc1SCC(=O)c1cccs1`, the IC50 (Estrogen receptor) was > 50 µM (not active).

In the case of `O=C(CN1CCN(c2ccccc2F)CC1)Nc1cccnc1Cl`, the EC50 (Troponin, cardiac muscle) is reported as > 71.5 µM (inactive).

For `CCN(c1ccccc1)S(=O)(=O)c1ccc2ncc(C(=O)NCCOC)c(O)c2c1`, the IC50 (Estrogen receptor) was 27.9 µM (active).

For `CCc1ccccc1N(C)C(=O)CCc1nc(-c2ccc(C)cc2)no1`, the EC50 [14] was 5.38 µM (active).

With `C[C@H](CO)N1C[C@H](C)[C@@H](CN(C)Cc2ccc3c(c2)OCO3)Oc2c(NC(=O)C3CCCCC3)cccc2C1=O` the AC50 [15] was 13.1 µM (active).
